The source made the active and inactive calls. The calls are words filed in the database; no cut-off is given here.
Key:
[1] = tested on: A2780; assay: Induction of cell cycle arrest in human A2780 cells assessed as accumulation of cells at G0/G1 phase at 0.2 uM incubated for 24 hrs by BrdU staining based flow cytometry (reference value: 42.4 %); assay type: functional
[2] = tested on: A2780; assay: Induction of cell cycle arrest in human A2780 cells assessed as accumulation of cells at G2/M phase at 0.8 uM incubated for 24 hrs by BrdU staining based flow cytometry (reference value: 6.2 %); assay type: functional
[3] = Toxicity in BALB/c mouse xenografted with human SK-OV-3 cells assessed as pathological change in heart at 2 to 5 mg/kg,ip administrated for 21 consecutive days by hematoxylin and eosin staining based assay; assay type: organism-based; details: in vivo, dose 2-5 mg/kg
[4] = tested on: A2780; assay: Induction of cell cycle arrest in human A2780 cells assessed as reduction of Cyclin D1 expression at 0.2 uM incubated for 24 hrs by flow cytometry (reference value: 92.5 %); assay type: functional; design: scale not given: the % may be the effect or the level left
[5] = tested on: A2780; assay: Induction of apoptosis in human A2780 cells assessed as necrotic cells at 0.8 uM incubated for 24 hrs by Annexin V-FITC/7-AAD staining based flow cytometry (reference value: 1 %); assay type: functional
[6] = tested on: A2780; assay: Induction of apoptosis in human A2780 cells assessed as viable cells at 0.4 uM incubated for 24 hrs by Annexin V-FITC/7-AAD staining based flow cytometry (reference value: 95 %); assay type: functional; details: read-out: Activity
[7] = tested on: A2780; assay: Induction of cell cycle arrest in human A2780 cells assessed as reduction of CDK2 expression at 0.2 uM incubated for 24 hrs by flow cytometry (reference value: 92.5 %); assay type: functional; design: scale not given: the % may be the effect or the level left
[8] = Toxicity in BALB/c mouse xenografted with human SK-OV-3 cells assessed as behavioral change at 2 to 5 mg/kg,ip administrated for 21 consecutive days; assay type: organism-based; details: in vivo, dose 2-5 mg/kg
[9] = tested on: A2780; assay: Induction of apoptosis in human A2780 cells assessed as late apoptotic cells at 0.4 uM incubated for 24 hrs by Annexin V-FITC/7-AAD staining based flow cytometry (reference value: 2.1 %); assay type: functional
[10] = tested on: A2780; assay: Induction of apoptosis in human A2780 cells assessed as early apoptotic cells at 0.4 uM incubated for 24 hrs by Annexin V-FITC/7-AAD staining based flow cytometry (reference value: 1.9 %); assay type: functional
[11] = tested on: A2780; assay: Induction of apoptosis in human A2780 cells assessed as necrotic cells at 0.2 uM incubated for 24 hrs by Annexin V-FITC/7-AAD staining based flow cytometry (reference value: 1 %); assay type: functional
[12] = tested on: A2780; assay: Induction of apoptosis in human A2780 cells assessed as increase in caspase-8 activity at 0.4 uM incubated for 24 hrs by flow cytometry (reference value: 1.2 %); assay type: functional
[13] = tested on: A2780; assay: Induction of cell cycle arrest in human A2780 cells assessed as reduction of Cyclin D1 expression at 0.8 uM incubated for 24 hrs by flow cytometry (reference value: 92.5 %); assay type: functional; design: scale not given: the % may be the effect or the level left
[14] = Selectivity index, ratio of IC50 for cytotoxicity against human IOSE80 cells to IC50 for cytotoxicity against human SK-OV-3 cells
[15] = tested on: SK-OV-3; assay: Inhibition of human SK-OV-3 cells spheroid formation assessed as reduction in spheroid size at 0.1 to 0.4 uM incubated for 10 days by inverted microscopic analysis; assay type: functional, cell-based; details: dose 0.1-0.4 µM, time 10.0 day
[16] = tested on: A2780; assay: Induction of cell cycle arrest in human A2780 cells assessed as accumulation of cells at S phase at 0.4 uM incubated for 24 hrs by BrdU staining based flow cytometry (reference value: 51.6 %); assay type: functional
[17] = tested on: SK-OV-3; assay: Antiproliferative activity against human SK-OV-3 cells assessed as decrease in ALDH positive cells at 0.4 uM incubated for 24 hrs by ALDEFLUOR staining based flow cytometry (reference value: 3.83 %); assay type: functional; design: scale not given: the % may be the effect or the level left
[18] = tested on: SK-OV-3; assay: Induction of apoptosis in human SK-OV-3 cells assessed as late apoptotic cells at 0.4 uM incubated for 24 hrs by Annexin V-FITC/7-AAD staining based flow cytometry (reference value: 3.7 %); assay type: functional
[19] = tested on: SK-OV-3; assay: Induction of cell cycle arrest in human SK-OV-3 cells assessed as accumulation of cells at G0/G1 phase at 0.4 uM incubated for 24 hrs by BrdU staining based flow cytometry (reference value: 59.8 %); assay type: functional
[20] = tested on: A2780; assay: Antiproliferative activity against human A2780 cells assessed as decrease in ALDH positive cells at 0.2 uM incubated for 24 hrs by ALDEFLUOR staining based flow cytometry (reference value: 32.5 %); assay type: functional; design: scale not given: the % may be the effect or the level left
[21] = tested on: SK-OV-3; assay: Induction of apoptosis in human SK-OV-3 cells assessed as increase in caspase-3 activity at 0.2 uM incubated for 24 hrs by flow cytometry (reference value: 4.6 %); assay type: functional
[22] = tested on: SK-OV-3; assay: Antitumor activity against human SK-OV-3 cells xenografted in BALB/c mouse assessed as reduction in tumor volume at 5 mg/kg,ip administrated for 21 consecutive days relative to control; assay type: functional; design: scale not given: the % may be the effect or the level left
[23] = tested on: A2780; assay: Induction of cell cycle arrest in human A2780 cells assessed as reduction of CDK2 expression at 0.4 uM incubated for 24 hrs by flow cytometry (reference value: 92.5 %); assay type: functional; design: scale not given: the % may be the effect or the level left
[24] = tested on: A2780; assay: Induction of apoptosis in human A2780 cells assessed as increase in caspase-3 activity at 0.8 uM incubated for 24 hrs by flow cytometry (reference value: 1.5 %); assay type: functional
[25] = tested on: A2780; assay: Induction of cell cycle arrest in human A2780 cells assessed as accumulation of cells at G2/M phase at 0.2 uM incubated for 24 hrs by BrdU staining based flow cytometry (reference value: 6.2 %); assay type: functional
[26] = target: Signal transducer and activator of transcription 3 (Homo sapiens) (UniProt P40763); assay: Inhibition of STAT3 in human SK-OV-3 cells assessed as downregulation of cytoplasmic STAT3 expression at 0.2 uM incubated for 24 hrs by Hoechst33342 staining based immunofluorescence assay; assay type: cell-based
Signal transducer and activator of transcription 3 (Homo sapiens), sequence (P40763 whole entry): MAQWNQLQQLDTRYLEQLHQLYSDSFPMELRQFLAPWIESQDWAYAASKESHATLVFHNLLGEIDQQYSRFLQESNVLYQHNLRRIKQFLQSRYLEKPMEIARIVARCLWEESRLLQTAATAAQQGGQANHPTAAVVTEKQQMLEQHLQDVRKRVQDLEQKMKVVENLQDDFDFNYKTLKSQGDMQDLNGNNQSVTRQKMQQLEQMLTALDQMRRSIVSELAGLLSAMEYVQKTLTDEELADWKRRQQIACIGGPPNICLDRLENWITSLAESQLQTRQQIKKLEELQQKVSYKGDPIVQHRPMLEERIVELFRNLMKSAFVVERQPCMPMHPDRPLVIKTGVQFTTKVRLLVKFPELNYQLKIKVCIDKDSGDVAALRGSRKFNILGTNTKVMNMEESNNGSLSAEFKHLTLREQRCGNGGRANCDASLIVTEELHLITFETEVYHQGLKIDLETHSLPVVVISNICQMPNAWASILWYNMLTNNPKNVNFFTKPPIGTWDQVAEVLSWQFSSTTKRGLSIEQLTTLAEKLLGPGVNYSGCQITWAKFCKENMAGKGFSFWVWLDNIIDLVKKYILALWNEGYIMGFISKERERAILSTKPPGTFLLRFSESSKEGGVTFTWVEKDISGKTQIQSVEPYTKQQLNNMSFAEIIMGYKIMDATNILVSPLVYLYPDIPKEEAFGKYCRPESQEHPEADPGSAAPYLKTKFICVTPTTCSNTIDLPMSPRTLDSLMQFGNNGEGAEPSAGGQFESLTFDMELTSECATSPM

[27] = tested on: SK-OV-3; assay: Inhibition of cell migration in human SK-OV-3 cells assessed as downregulation of FAK expression at 0.1 to 0.4 uM incubated for 24 hrs by Western blotting analysis; assay type: functional, cell-based; details: dose 0.1-0.4 µM
[28] = tested on: SK-OV-3; assay: Induction of apoptosis in human SK-OV-3 cells assessed as early apoptotic cells at 0.8 uM incubated for 24 hrs by Annexin V-FITC/7-AAD staining based flow cytometry (reference value: 1.6 %); assay type: functional
[29] = target: Tyrosine-protein kinase JAK1 (Homo sapiens) (UniProt P23458); assay: Inhibition of JAK1 in human SK-OV-3 cells assessed as downregulation of JAK1 expression at 0.1 to 0.4 uM incubated for 24 hrs by Western blotting analysis; assay type: cell-based; details: dose 0.1-0.4 µM
Tyrosine-protein kinase JAK1 (Homo sapiens), sequence (P23458 whole entry): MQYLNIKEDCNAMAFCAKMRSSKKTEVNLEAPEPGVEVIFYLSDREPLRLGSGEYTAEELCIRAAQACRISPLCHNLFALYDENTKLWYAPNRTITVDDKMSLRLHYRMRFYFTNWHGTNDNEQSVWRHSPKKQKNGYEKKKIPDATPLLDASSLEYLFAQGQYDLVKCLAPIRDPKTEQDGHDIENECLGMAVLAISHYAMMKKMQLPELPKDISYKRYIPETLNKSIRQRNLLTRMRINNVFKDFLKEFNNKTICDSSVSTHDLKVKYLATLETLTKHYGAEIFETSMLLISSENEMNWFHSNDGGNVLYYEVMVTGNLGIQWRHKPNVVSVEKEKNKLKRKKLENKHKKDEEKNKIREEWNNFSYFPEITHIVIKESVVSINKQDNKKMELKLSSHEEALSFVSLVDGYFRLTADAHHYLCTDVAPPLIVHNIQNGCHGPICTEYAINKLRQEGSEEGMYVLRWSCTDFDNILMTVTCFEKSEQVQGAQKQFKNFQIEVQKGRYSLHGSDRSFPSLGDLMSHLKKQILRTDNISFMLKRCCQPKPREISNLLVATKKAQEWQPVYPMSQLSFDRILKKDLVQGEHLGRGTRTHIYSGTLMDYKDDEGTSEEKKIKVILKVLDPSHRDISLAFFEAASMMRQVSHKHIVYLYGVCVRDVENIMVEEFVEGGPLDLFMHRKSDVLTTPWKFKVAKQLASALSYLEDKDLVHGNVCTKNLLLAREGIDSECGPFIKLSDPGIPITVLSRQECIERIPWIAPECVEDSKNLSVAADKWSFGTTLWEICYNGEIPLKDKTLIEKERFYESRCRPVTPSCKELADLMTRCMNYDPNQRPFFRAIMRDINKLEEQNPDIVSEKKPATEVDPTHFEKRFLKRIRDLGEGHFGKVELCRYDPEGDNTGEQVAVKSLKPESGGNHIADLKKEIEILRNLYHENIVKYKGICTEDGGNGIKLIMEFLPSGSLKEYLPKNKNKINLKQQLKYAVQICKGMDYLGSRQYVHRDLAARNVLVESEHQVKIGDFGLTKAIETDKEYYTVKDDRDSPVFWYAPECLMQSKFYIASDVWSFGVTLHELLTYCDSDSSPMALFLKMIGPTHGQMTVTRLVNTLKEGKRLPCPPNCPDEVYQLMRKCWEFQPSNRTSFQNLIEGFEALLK

[30] = Toxicity in BALB/c mouse xenografted with human SK-OV-3 cells assessed as pathological change in liver at 2 to 5 mg/kg,ip administrated for 21 consecutive days by hematoxylin and eosin staining based assay; assay type: organism-based; details: in vivo, dose 2-5 mg/kg
[31] = tested on: SK-OV-3; assay: Induction of cell cycle arrest in human SK-OV-3 cells assessed as reduction of CDK2 expression at 0.8 uM incubated for 24 hrs by flow cytometry (reference value: 94.4 %); assay type: functional; design: scale not given: the % may be the effect or the level left
[32] = tested on: SK-OV-3; assay: Inhibition of cell invasion in human SK-OV-3 cells incubated for 24 hrs by crystal violet staining based transwell assay; assay type: functional
[33] = tested on: A2780; assay: Induction of cell cycle arrest in human A2780 cells assessed as accumulation of cells at G2/M phase at 0.4 uM incubated for 24 hrs by BrdU staining based flow cytometry (reference value: 6.2 %); assay type: functional

CC1=C(O)C(=O)C=C2C1=CC=C1[C@@]2(C)CC[C@@]2(C)[C@@H]3C[C@](C)(C(=O)N4CCNCC4)CC[C@]3(C)CC[C@]12C
Activity [1]: 53.7% | Activity [2]: 24.3% | Activity [3]: Non-toxic | Activity [4]: 85.2% | Activity [5]: 7.1% | viability at 0.4 µM [6]: 75.3% | Activity [7]: 89.6% | Activity [8]: Non-toxic | Activity [9]: 15% | Activity [10]: 7.4% | Activity [11]: 1% | Activity [12]: 9.8% | Activity [13]: 15% | Ratio IC50 [14]: 4.81 | inhibition [15]: Active | Activity [16]: 25.2% | Activity [17]: 1.3% | Activity [18]: 11.5% | Activity [19]: 49.2% | Activity [20]: 3.83% | Activity [21]: 6.8% | Activity [22]: 74.58% | Activity [23]: 69.9% | Activity [24]: 70.7% | Activity [25]: 4.8% | inhibition [26]: Active; Showed Mild Inhibition Activity | inhibition [27]: Active | Activity [28]: 33.2% | inhibition [29]: Active | Activity [30]: Non-toxic | Activity [31]: 57.5% | inhibition [32]: Dose-dependent-effect | Activity [33]: 10.1%

— ChEMBL document CHEMBL6083204, “Synthesis of a celastrol derivative as a cancer stem cell inhibitor through regulation of the STAT3 pathway for treatment of ovarian cancer” (RSC Med Chem, 2024)
